# Like-named read-outs stand apart in the source and are kept apart here.
# Assays:
# [1] = Solubility tests of compound of formula I, mixture of crystal forms A and B, and crystal form C at 37° C. (Example 13); type: physicochemical; details: 37° C.; for solubility at 1 h / solubility at 24 h: thermodynamic from solid; for solubility at 1 h: read-out: Solubility at 1 h; for solubility at 24 h: read-out: Solubility at 24 h
# Experimental: An appropriate amount of a test sample was weighed out and added to a vial; 3 mL of a medium (water, SGF, FaSSIF, FeSSIF, or the like) was added; the mixture was stirred at 37° C.; […]; centrifugation was performed at 12000 rpm for 10 min; the supernatant was diluted with 50% aqueous acetonitrile solution to an appropriate multiple; and the concentration of the supernatant was determined.
# Control and linearity: 10 mg of the compound of formula I was weighed out and added to a 50 mL volumetric flask, 50% aqueous acetonitrile solution was added for dissolution, and the mixture was diluted to volume. Two parts were prepared in parallel. The control was taken and diluted with 50% aqueous acetonitrile solution to 100 μg/mL, 50 μg/mL, and 10 μg/mL, 5 μL of the sample was injected, and a standard curve was plotted.
# [2] = PK of single intragastric administration to cynomolgus monkeys (plasma concentration); type: in vivo; details: intragastric 3 mpk and 30 mpk, same dose as control compound
# Experimental: Cynomolgus monkeys were used. Each group consisted of 3 cynomolgus monkeys, and they were given the control compound at 3 mpk, the control compound at 30 mpk, the compound of formula I at 3 mpk, and the compound of formula I at 30 mpk by intragastric administration. Blood was collected at different time points and used for drug concentration analysis and complement activity detection. The compound concentration in plasma was determined by LC-MS/MS. The complement activity in serum was determined using a wieslab assay (Svar Life Science AB, COMPL AP330 RUO) kit, Normal Human Serum (Complement Technology, NHS).
# [3] = Liver microsomal stability experiment (monkey); type: in vitro ADME, cynomolgus monkey; details: monkey liver microsomes
# Experimental: A 0.1 M solution of dipotassium phosphate in distilled water (containing 1 mM ethylenediaminetetraacetic acid) was taken. Then the pH was adjusted to 7.4 with a 0.1 M solution of potassium dihydrogen phosphate in distilled water (containing 1 mM ethylenediaminetetraacetic acid).
# • Rat: SD Rat Liver Microsomes, Cat. No.: LM-DS-02M, RILD Research Institute for Liver Diseases (Shanghai) Co. Ltd. • Monkey: Cynomolgus Monkey Liver Microsomes, Cat. No.: LM-SXH-02M, RILD Research Institute for Liver Diseases (Shanghai) Co. Ltd. • Human: Pooled Human Liver Microsomes (Mongolian), Cat. No.: LM-R-02M, RILD Research Institute for Liver Diseases (Shanghai) Co. Ltd.
# A 10 mM solution of each of the control compound and test compounds was prepared in DMSO. Then 10 μL of the solution was added to 190 μL of acetonitrile to form a 0.5 mM stock solution. 1.5 μL of the 0.5 mM stock solution was measured out, and […] of 20 mg/mL liver microsomes and 479.75 μL of the buffer were added. (The actual preparation amount can be adjusted according to use).
# 10 mg/mL of reduced coenzyme II (NADPH) was prepared in the buffer. A 96-well plate was placed on ice. Wells corresponding to different time points (0, 10, 30, 60 and 90 min, Non-NADPH) were set for each compound. […] The mixture was analyzed on an AB SCIEX ExionLC-Triple Quad 5500 high-performance liquid chromatograph-mass spectrometer. […]
# [4] = Stability tests of compound of formula I and its monohydrochloride, phosphate and maleate (Example 4); type: physicochemical
# Experimental: The stability of the compound of formula I, the monohydrochloride of the compound of formula I in Example 1, the phosphate of the compound of formula I in Example 2, and the maleate of the compound of formula I in Example 3 were investigated.
# Stability investigation conditions: 40° C./75% RH-closed, 40° C./75% RH-open, and 60° C.-closed; stability investigation content: changes in related substances and crystal forms.
# Detection of related substances: about 6-7 mg of a sample was separately weighed out and added to a 10 mL volumetric flask; 50% aqueous acetonitrile solution was added for dissolution; the mixture was diluted to volume; and 10 μL of the sample was injected.
compound,measurement,setting,value
COc1cc(C)c2[nH]ccc2c1CN1CC[C@H](OCC2CC2)C[C@H]1c1ccc(C(=O)O)cc1 [Compound of formula I],Final pH,[1]; FaSSIF,6.44
same,Final pH,[1]; FessIF,5.03
same,Final pH,[1]; SGF,1.74
same,Final pH,[1]; Water,8.73
same,solubility at 1 h,"[1]; simulated gastric fluid, SGF",5510 µg/mL
same,solubility at 24 h,"[1]; simulated gastric fluid, SGF",5480 µg/mL
same,solubility at 1 h,[1]; FassIF,220 µg/mL
same,solubility at 24 h,[1]; FassIF,190 µg/mL
same,solubility at 1 h,[1]; FessIF,370 µg/mL
same,solubility at 24 h,[1]; FessIF,350 µg/mL
same,solubility at 1 h,[1]; Water,370 µg/mL
same,solubility at 24 h,[1]; Water,310 µg/mL
same,"Mean plasma concentration (in words, FIG. 21)",[2],significantly higher mean plasma concentration than that of the control compound
same,MMS (monkey) Remaining (T = 90 min),[3],93.32%
same,Stability (conclusion in words from Table 7),"[4]; 40° C./75% RH closed/open and 60° C. closed, 2 wks, listed as compound of formula I",stable
same,Maximum single impurity %,[4]; 40° C./75% RH-closed-2 wks,0.16%
same,Purity %,[4]; 40° C./75% RH-closed-2 wks,99.23%
same,Total impurity %,[4]; 40° C./75% RH-closed-2 wks,0.77%
same,Maximum single impurity %,[4]; 40° C./75% RH-open-2 wks,0.17%
same,Purity %,[4]; 40° C./75% RH-open-2 wks,99.24%
same,Total impurity %,[4]; 40° C./75% RH-open-2 wks,0.76%
same,Maximum single impurity %,[4]; 60° C.-closed-2 wks,0.33%
same,Purity %,[4]; 60° C.-closed-2 wks,98.95%
same,Total impurity %,[4]; 60° C.-closed-2 wks,1.05%
same,Maximum single impurity %,[4]; Initial,0.10%
same,Purity %,[4]; Initial,99.28%
same,Total impurity %,[4]; Initial,0.72%
